From patent US10385057B2, “Pyrazole compounds and methods of making and using same” (Lundbeck La Jolla Research Center, Inc., priority 2015, dated 2019)

Tests used:
[1] = molecular target: T1, FAAH (Mus musculus, UniProt O08914); assay: In vitro competitive activity-based protein profiling, mouse FAAH; format: biochemical; conditions: for inhibition at 1 µM: read-out: FAAH % inh. 1 μM (mouse)
T1 construct: mouse brain membrane fraction or cell lysates for mouse assays; from tissue
T1 sequence (O08914 1-579): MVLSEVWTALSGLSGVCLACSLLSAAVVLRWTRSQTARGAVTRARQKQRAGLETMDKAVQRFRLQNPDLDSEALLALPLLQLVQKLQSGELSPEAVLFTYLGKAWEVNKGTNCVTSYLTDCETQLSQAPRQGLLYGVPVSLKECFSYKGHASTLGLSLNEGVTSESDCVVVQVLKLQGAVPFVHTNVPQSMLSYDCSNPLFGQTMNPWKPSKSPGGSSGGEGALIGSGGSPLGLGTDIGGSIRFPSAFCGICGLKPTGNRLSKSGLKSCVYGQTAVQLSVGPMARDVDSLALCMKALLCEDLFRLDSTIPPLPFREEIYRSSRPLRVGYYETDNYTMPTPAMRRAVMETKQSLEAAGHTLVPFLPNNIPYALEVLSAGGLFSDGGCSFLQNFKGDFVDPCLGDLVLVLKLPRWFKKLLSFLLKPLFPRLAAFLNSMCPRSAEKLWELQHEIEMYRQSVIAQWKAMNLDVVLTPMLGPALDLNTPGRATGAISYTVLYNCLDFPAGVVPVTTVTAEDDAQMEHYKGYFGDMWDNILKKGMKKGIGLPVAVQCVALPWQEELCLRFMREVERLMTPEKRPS
Outline: (§1)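 Activity measured as fluorescent gel-band intensity of MAGL and FAAH after SDS-PAGE. Before labelling with FP-Rh or HT-01 (30 min, 37 °C), proteomes at 1.0 mg/mL (mouse brain membrane or lysates; human prefrontal cortex or cell membranes) were exposed to varying inhibitor concentrations for 30 min at 37 °C.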

[2] = molecular target: T2, MAGL (Homo sapiens, UniProt Q99685); assay: In vitro competitive activity-based protein profiling, human MAGL; format: biochemical; conditions: for inhibition at 10 µM: read-out: MAGL % inh. 10 μM (human); for inhibition at 1 µM: read-out: MAGL % inh. 1 μM (human)
T2 construct: human prefrontal cortex or cell membrane fractions for human assays; from tissue
T2 sequence (Q99685 1-303): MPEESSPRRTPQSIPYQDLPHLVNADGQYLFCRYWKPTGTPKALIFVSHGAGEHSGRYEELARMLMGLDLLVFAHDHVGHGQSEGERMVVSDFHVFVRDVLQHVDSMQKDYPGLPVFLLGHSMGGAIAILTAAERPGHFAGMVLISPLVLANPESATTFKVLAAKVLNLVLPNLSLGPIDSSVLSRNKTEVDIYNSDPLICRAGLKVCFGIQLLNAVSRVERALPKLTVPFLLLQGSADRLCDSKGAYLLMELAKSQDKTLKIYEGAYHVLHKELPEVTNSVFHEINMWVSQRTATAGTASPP
Method: (§2) In Vitro Competitive Activity-Based Protein Profiling.
(§3) Proteomes (mouse brain membrane fraction or cell lysates for mouse assays; human prefrontal cortex or cell membrane fractions for human assays) (50 μL, 1.0 mg/mL total protein concentration) were preincubated with varying concentrations of inhibitors at 37° C. After 30 min, FP-Rh or HT-01 (1.0 μL, 50 μM in DMSO) was added and the mixture was incubated for another 30 min at 37° C. Reactions were quenched with SDS loading buffer (15 μL—4×) and run on SDS-PAGE. Following gel imaging, serine hydrolase activity was determined by measuring fluorescent intensity of gel bands corresponding to MAGL and FAAH using ImageJ 1.43u software.

[3] = molecular target: T3, FAAH (Homo sapiens, UniProt O00519); assay: In vitro competitive activity-based protein profiling, human FAAH; format: biochemical; conditions: for inhibition at 10 µM: read-out: FAAH % inh. 10 μM (human); for inhibition at 1 µM: read-out: FAAH % inh. 1 μM (human)
T3 construct: human prefrontal cortex or cell membrane fractions for human assays; from tissue
T3 sequence (O00519 1-579): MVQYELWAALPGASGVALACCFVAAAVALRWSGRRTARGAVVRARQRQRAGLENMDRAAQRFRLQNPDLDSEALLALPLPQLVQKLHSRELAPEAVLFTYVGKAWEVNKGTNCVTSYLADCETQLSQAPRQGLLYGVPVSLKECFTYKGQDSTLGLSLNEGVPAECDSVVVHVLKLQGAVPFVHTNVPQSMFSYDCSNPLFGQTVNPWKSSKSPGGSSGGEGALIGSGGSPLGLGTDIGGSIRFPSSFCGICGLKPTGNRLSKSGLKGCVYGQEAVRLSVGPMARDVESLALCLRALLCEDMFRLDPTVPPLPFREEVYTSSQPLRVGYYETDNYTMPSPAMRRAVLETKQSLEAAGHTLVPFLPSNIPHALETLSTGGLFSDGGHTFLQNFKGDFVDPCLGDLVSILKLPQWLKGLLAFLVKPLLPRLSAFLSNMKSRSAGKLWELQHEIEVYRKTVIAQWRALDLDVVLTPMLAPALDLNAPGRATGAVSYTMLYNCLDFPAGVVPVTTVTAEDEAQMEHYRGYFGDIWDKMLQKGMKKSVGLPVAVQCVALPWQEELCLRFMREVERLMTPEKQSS
Method: as §2, §3

[4] = molecular target: T4, MAGL (Mus musculus, UniProt O35678); assay: In vitro competitive activity-based protein profiling, mouse MAGL; format: biochemical; conditions: for inhibition at 1 µM: read-out: MAGL % inh. 1 μM (mouse)
T4 construct: mouse brain membrane fraction or cell lysates for mouse assays; from tissue
T4 sequence (O35678 1-303): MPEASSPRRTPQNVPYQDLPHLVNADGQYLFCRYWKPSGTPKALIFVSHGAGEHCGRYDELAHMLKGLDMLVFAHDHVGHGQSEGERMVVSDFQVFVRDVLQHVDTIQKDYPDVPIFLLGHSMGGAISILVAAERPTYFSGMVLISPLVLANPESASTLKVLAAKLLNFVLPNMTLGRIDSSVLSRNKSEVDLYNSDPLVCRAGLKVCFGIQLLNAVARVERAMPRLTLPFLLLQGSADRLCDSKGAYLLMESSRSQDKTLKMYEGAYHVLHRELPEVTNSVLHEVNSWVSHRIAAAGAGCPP
Outline: as §1

[5] = molecular target: T4, MAGL; assay: Mouse brain proteomes from inhibitor treated mice, MAGL; format: in vivo; conditions: oral gavage, brain 4 h after administration, read-out: MAGL % inh. 5 mg/kg (mouse)
Method: Preparation of Mouse Brain Proteomes from Inhibitor Treated Mice.
Inhibitors were administered to wild-type C57Bl/6J by oral gavage in a vehicle of polyethylene glycol. Each animal was sacrificed 4 h following administration and brain proteomes were prepared and analyzed according to previously established methods (See Niphakis, M. J., et al. (2011) ACS Chem. Neurosci. and Long, J. Z., et al. Nat. Chem. Biol. 5:37-44).

With `O=C(O)c1cnn(C(=O)N2CC3CN(Cc4ccc(Cl)cc4)CC3C2)c1` (stereo not shown) [Example 46, 1-(5-(4-chlorobenzyl)octahydropyrrolo[3,4-c]pyrrole-2-carbonyl)-1H-pyrazole-4-carboxylic acid] the inhibition at 1 µM [1] was ≥ 75%, the inhibition at 10 µM [2] was ≥ 75% and the inhibition at 10 µM [3] was 0 to 25%. The inhibition at 1 µM [4] was 0 to 25%.

For `O=C(O)c1cnn(C(=O)N2CC3CN(Cc4ccc(C(F)(F)F)cc4)CC3C2)c1` (stereo not shown) [Example 47, 1-(5-(4-(trifluoromethyl)benzyl)octahydropyrrolo[3,4-c]pyrrole-2-carbonyl)-1H-pyrazole-4-carboxylic acid], the inhibition at 1 µM [1] was ≥ 75%, the inhibition at 10 µM [2] was ≥ 75% and the inhibition at 10 µM [3] was 50 to 75%. It also gave an inhibition at 1 µM [4] of 0 to 25%.

In the case of `O=C(O)c1cnn(C(=O)N2CCC3(CCN(Cc4ccc(Cl)cc4)C3)C2)c1` (stereo not shown) [Example 48, 1-(7-(4-chlorobenzyl)-2,7-diazaspiro[4.4]nonane-2-carbonyl)-1H-pyrazole-4-carboxylic acid], the inhibition at 1 µM [1] is reported as ≥ 75%, the inhibition at 10 µM [2] is reported as ≥ 75% and the inhibition at 10 µM [3] is reported as 0 to 25%. For the same compound, the inhibition at 1 µM [4] was 0 to 25%.

In the case of `CN(Cc1ccccc1Cl)[C@H]1C[C@@H]2CN(C(=O)n3cc(C(=O)O)cn3)C[C@@H]2C1` [Example 183, 1-(trans-5-((2-chlorobenzyl)(methyl)amino)octahydrocyclopenta[c]pyrrole-2-carbonyl)-1H-pyrazole-4-carboxylic acid], the inhibition at 1 µM [1] is reported as 50 to 75%, the inhibition at 10 µM [2] is reported as ≥ 75% and the inhibition at 10 µM [3] is reported as 25 to 50%. It also gave an inhibition at 1 µM [4] of 0 to 25%.

In the case of `O=C(O)c1cnn(C(=O)N2CCC3(CCN(Cc4cccc(Oc5ccccc5)c4)C3)C2)c1` (stereo not shown) [Example 185, 1-(7-(3-phenoxybenzyl)-2,7-diazaspiro[4.4]nonane-2-carbonyl)-1H-pyrazole-4-carboxylic acid], the inhibition at 1 µM [1] is reported as ≥ 75%, the inhibition at 10 µM [2] is reported as ≥ 75% and the inhibition at 10 µM [3] is reported as 25 to 50%. It also gave an inhibition at 1 µM [4] of 0 to 25%.

For `CN(Cc1cccc(Oc2ccccc2)c1)[C@H]1C[C@@H]2CN(C(=O)n3cc(C(=O)O)cn3)C[C@@H]2C1` [Example 188, 1-(trans-5-(methyl(3-phenoxybenzyl)amino)octahydrocyclopenta[c]pyrrole-2-carbonyl)-1H-pyrazole-4-carboxylic acid], the inhibition at 1 µM [1] was 50 to 75%, the inhibition at 10 µM [2] was ≥ 75% and the inhibition at 10 µM [3] was 50 to 75%. For the same compound, the inhibition at 1 µM [4] was 0 to 25%.

For `O=C(c1cnn(C(=O)N2CC3CN(Cc4cccc(Oc5ccc(Cl)cc5)c4)CC3C2)c1)N1CCCC1` (stereo not shown) [Example 190, (5-(3-(4-chlorophenoxy)benzyl)hexahydropyrrolo[3,4-c]pyrrol-2(1H)-yl)(4-(pyrrolidine-1-carbonyl)-1H-pyrazol-1-yl)methanone], the inhibition at 1 µM [1] was ≥ 75%, the inhibition at 10 µM [2] was ≥ 75% and the inhibition at 10 µM [3] was ≥ 75%. For the same compound, the inhibition at 1 µM [4] was 0 to 25%.

For `NC(=O)c1cnn(C(=O)N2CC[C@]3(CCN(Cc4ccc(N5CCOCC5)cc4C(F)(F)F)C3)C2)c1` [Example 195, (S)-1-(7-(4-morpholino-2-(trifluoromethyl)benzyl)-2,7-diazaspiro[4.4]nonane-2-carbonyl)-1H-pyrazole-4-carboxamide], the IC50 [1] was ≤ 100 nM, the inhibition at 1 µM [1] was ≥ 75% and the inhibition at 5 mg/kg [5] was ≥ 75%. For the same compound, the IC50 [4] was 100 to 1000 nM and the inhibition at 1 µM [4] was ≥ 75%.

With `O=C(O)c1cnn(C(=O)N2CC3CN(Cc4cc(Cl)ccc4C(F)(F)F)CC3C2)c1` (stereo not shown) [Example 196, 1-(5-(5-chloro-2-(trifluoromethyl)benzyl)octahydropyrrolo[3,4-c]pyrrole-2-carbonyl)-1H-pyrazole-4-carboxylic acid] the inhibition at 1 µM [1] was ≥ 75%, the inhibition at 1 µM [2] was 0 to 25% and the inhibition at 10 µM [2] was ≥ 75%. For the same compound, the inhibition at 1 µM [3] was ≥ 75%, the inhibition at 10 µM [3] was ≥ 75% and the inhibition at 1 µM [4] was 0 to 25%.

In the case of `O=C(O)c1cnn(C(=O)N2CC3CN(Cc4ccc(N5CCCC5)cc4C(F)(F)F)CC3C2)c1` (stereo not shown) [Example 197, 1-(5-(4-(pyrrolidin-1-yl)-2-(trifluoromethyl)benzyl)octahydropyrrolo[3,4-c]pyrrole-2-carbonyl)-1H-pyrazole-4-carboxylic acid], the inhibition at 1 µM [1] is reported as ≥ 75%, the inhibition at 1 µM [2] is reported as 0 to 25% and the inhibition at 10 µM [2] is reported as ≥ 75%. For the same compound, the inhibition at 1 µM [3] was ≥ 75%, the inhibition at 10 µM [3] was ≥ 75% and the inhibition at 1 µM [4] was 0 to 25%.

With `O=C(O)c1cnn(C(=O)N2CC3CN(Cc4cc(N5CCCC5)cc(C(F)(F)F)c4)CC3C2)c1` (stereo not shown) [Example 198, 1-(5-(3-(pyrrolidin-1-yl)-5-(trifluoromethyl)benzyl)octahydropyrrolo[3,4-c]pyrrole-2-carbonyl)-1H-pyrazole-4-carboxylic acid] the inhibition at 1 µM [1] was ≥ 75%, the inhibition at 1 µM [2] was 0 to 25% and the inhibition at 10 µM [2] was ≥ 75%. The inhibition at 1 µM [3] was ≥ 75%, the inhibition at 10 µM [3] was 50 to 75% and the inhibition at 1 µM [4] was 0 to 25%.

With `NC(=O)c1cnn(C(=O)N2CCC3(CCN(Cc4cc(N5CCOCC5)cc(C(F)(F)F)c4)C3)C2)c1` (stereo not shown) [Example 210, 1-(7-(3-morpholino-5-(trifluoromethyl)benzyl)-2,7-diazaspiro[4.4]nonane-2-carbonyl)-1H-pyrazole-4-carboxamide] the inhibition at 1 µM [1] was ≥ 75%, the inhibition at 1 µM [2] was ≥ 75% and the inhibition at 1 µM [3] was ≥ 75%. The inhibition at 1 µM [4] was 0 to 25%.

For `CN(Cc1ccc(N2CCCC2)cc1C(F)(F)F)[C@@H]1C[C@@H]2CN(C(=O)n3cc(C(N)=O)cn3)C[C@@H]2C1` [Example 220, 1-(cis-5-(methyl(4-(pyrrolidin-1-yl)-2-(trifluoromethyl)benzyl)amino)octahydrocyclopenta[c]pyrrole-2-carbonyl)-1H-pyrazole-4-carboxamide], the inhibition at 1 µM [1] was 0 to 25%, the inhibition at 1 µM [2] was 0 to 25% and the inhibition at 10 µM [2] was ≥ 75%. The inhibition at 1 µM [3] was 0 to 25%, the inhibition at 10 µM [3] was ≥ 75% and the inhibition at 1 µM [4] was 0 to 25%.
